Experimental data published in patent US8889874B2, “Imidazolone-chalcone derivatives as potential anticancer agent and process for the preparation thereof” (Council of Scientific and Industrial Research, priority 2010, dated 2014).
Where two headings read alike, the source gives them in different places.

Columns and labels:
Format in all cases: cell-based, human
[1] = test system: Ovarian cancer cell lines; test: NCI anticancer screen, SRB assay, panel summary; settings: Homo sapiens
Experimental: (§1) Some of biological activity studies were carried out at the National Cancer Institute (NCI), Maryland, USA.
(§2) The compounds were evaluated for anticancer activity against fifty three human cancer cells derived from nine cancer types (leukemia cell line, non-small-cell lung cell line, colon cell line, CNS cell line, melanoma cell line, ovarian cell line, prostate cell line, and breast cancer cell line) as shown in Table 1. For each compound, dose response curves for each cell line were measured at a minimum of five concentrations at 10 fold dilutions. A protocol of 48 h continuous drug exposure was used and a sulforhodamine B (SRB) protein assay was used to estimate cell viability or growth.

[2] = test system: Non-small cell lung cancer cell lines; test: NCI anticancer screen, SRB assay, panel summary; settings: Homo sapiens
Experimental: as §1, §2

[3] = test system: Breast cancer cell lines; test: NCI anticancer screen, SRB assay, panel summary; settings: Homo sapiens
Experimental: as §1, §2

[4] = test system: Melanoma cancer cell lines; test: NCI anticancer screen, SRB assay, panel summary; settings: for GI50: Homo sapiens
Experimental: as §1, §2

[5] = test system: Leukemia cancer cell lines; test: NCI anticancer screen, SRB assay, panel summary; settings: Homo sapiens
Experimental: as §1, §2

[6] = test system: Prostate cancer cell lines; test: NCI anticancer screen, SRB assay, panel summary
Experimental: as §1, §2

[7] = test system: Renal cancer cell lines; test: NCI anticancer screen, SRB assay, panel summary; settings: Homo sapiens
Experimental: as §1, §2

[8] = test system: Colon cancer cell lines; test: NCI anticancer screen, SRB assay, panel summary; settings: for GI50: Homo sapiens
Experimental: as §1, §2

[9] = test system: CNS cancer cell lines; test: NCI anticancer screen, SRB assay, panel summary; settings: for GI50: Homo sapiens
Experimental: as §1, §2

[10] = test system: OVCAR-5 (ovarian); test: NCI anticancer screen, SRB assay, 48 h; settings: Homo sapiens
Experimental: as §1, §2

[11] = test system: UO-31 (renal); test: NCI anticancer screen, SRB assay, 48 h; settings: Homo sapiens
Experimental: as §1, §2

[12] = test system: SF-539 (CNS); test: NCI anticancer screen, SRB assay, 48 h; settings: Homo sapiens
Experimental: as §1, §2

[13] = test system: EKVX (non-small cell lung); test: NCI anticancer screen, SRB assay, 48 h; settings: Homo sapiens
Experimental: as §1, §2

[14] = test system: TK-10 (renal); test: NCI anticancer screen, SRB assay, 48 h; settings: Homo sapiens
Experimental: as §1, §2

[15] = test system: KM12 (colon); test: NCI anticancer screen, SRB assay, 48 h; settings: Homo sapiens
Experimental: as §1, §2

[16] = test system: SN12C (renal); test: NCI anticancer screen, SRB assay, 48 h; settings: Homo sapiens, SN12C
Experimental: as §1, §2

[17] = test system: HCC-2998 (colon); test: NCI anticancer screen, SRB assay, 48 h; settings: Homo sapiens
Experimental: as §1, §2

[18] = test system: COLO 205 (colon); test: NCI anticancer screen, SRB assay, 48 h; settings: Homo sapiens, COLO 205
Experimental: as §1, §2

[19] = test system: HCT-15 (colon); test: NCI anticancer screen, SRB assay, 48 h; settings: Homo sapiens
Experimental: as §1, §2

[20] = test system: TD-47D (breast); test: NCI anticancer screen, SRB assay, 48 h; settings: Homo sapiens
Experimental: as §1, §2

[21] = test system: PC-3 (prostate); test: NCI anticancer screen, SRB assay, 48 h; settings: Homo sapiens
Experimental: as §1, §2

[22] = test system: OVCAR-3 (ovarian); test: NCI anticancer screen, SRB assay, 48 h; settings: Homo sapiens
Experimental: as §1, §2

[23] = test system: NCI-H23 (non-small cell lung); test: NCI anticancer screen, SRB assay, 48 h; settings: Homo sapiens
Experimental: as §1, §2

[24] = test system: SK-MEL-2 (melanoma); test: NCI anticancer screen, SRB assay, 48 h; settings: Homo sapiens
Experimental: as §1, §2

[25] = test system: A549/ATCC (non-small cell lung); test: NCI anticancer screen, SRB assay, 48 h; settings: Homo sapiens
Experimental: as §1, §2

[26] = test system: SK-MEL-5 (melanoma); test: NCI anticancer screen, SRB assay, 48 h; settings: Homo sapiens
Experimental: as §1, §2

[27] = test system: NCI-H522 (non-small cell lung); test: NCI anticancer screen, SRB assay, 48 h; settings: Homo sapiens
Experimental: as §1, §2

[28] = test system: MDA-MB-435 (melanoma); test: NCI anticancer screen, SRB assay, 48 h; settings: Homo sapiens
Experimental: as §1, §2

[29] = test system: BT-549 (breast); test: NCI anticancer screen, SRB assay, 48 h; settings: Homo sapiens
Experimental: as §1, §2

[30] = test system: CAKI-1 (renal); test: NCI anticancer screen, SRB assay, 48 h; settings: Homo sapiens
Experimental: as §1, §2

[31] = test system: NCI-H322M (non-small cell lung); test: NCI anticancer screen, SRB assay, 48 h; settings: Homo sapiens
Experimental: as §1, §2

[32] = test system: HOP-92 (non-small cell lung); test: NCI anticancer screen, SRB assay, 48 h; settings: Homo sapiens
Experimental: as §1, §2

[33] = 48 h exposure, SRB, read-out: GI50
[34] = read-out: pGI50 (-log of molar concentration causing 50% inhibition of net cell growth) (converted)

SMILES: O=C(/C=C/c1cccc(O)c1)c1cccc(-n2cc(-c3ccc4ccccc4c3)[nH]c2=O)c1 [12b, 1-3-[(E)-3-(3-hydroxyphenyl)-2-propenoyl]phenyl-4-(2-naphthyl)-2,3-dihydro-1H-2-imidazolone]
- GI50 ([1]; Ovarian panel, log of concentration in mol/L causing 50% inhibition of net cell growth, read-out: mean graph midpoint (MG_MID) of Log10 GI50 (converted)): 1820 nM
- LC50 ([1]; Ovarian panel, log of concentration leading to 50% net cell death, read-out: mean graph midpoint (MG_MID) of Log10 LC50 (converted)): 25700 nM
- GI50 ([1]; six ovarian cancer cell lines, exposure at least 48 hrs, read-out: GI50, range over the panel): 1330 to 2330 nM
- GI50 ([2]; Non-small cell lung panel, log of concentration in mol/L causing 50% inhibition of net cell growth, read-out: mean graph midpoint (MG_MID) of Log10 GI50 (converted)): 1740 nM
- LC50 ([2]; Non-small cell lung panel, log of concentration leading to 50% net cell death, read-out: mean graph midpoint (MG_MID) of Log10 LC50 (converted)): 20000 nM
- GI50 ([2]; nine non-small cell lung cancer cell lines, exposure at least 48 hrs, read-out: GI50, range over the panel): 510 to 3380 nM
- GI50 ([3]; Breast panel, log of concentration in mol/L causing 50% inhibition of net cell growth, read-out: mean graph midpoint (MG_MID) of Log10 GI50 (converted)): 1290 nM
- LC50 ([3]; Breast panel, log of concentration leading to 50% net cell death, read-out: mean graph midpoint (MG_MID) of Log10 LC50 (converted)): 31600 nM
- GI50 ([3]; five breast cancer cell lines, exposure at least 48 hrs, read-out: GI50, range over the panel): 470 to 2010 nM
- GI50 ([4]; Melanoma panel, log of concentration in mol/L causing 50% inhibition of net cell growth, read-out: mean graph midpoint (MG_MID) of Log10 GI50 (converted)): 1950 nM
- GI50 ([4]; nine melanoma cancer cell lines, exposure at least 48 hrs, read-out: GI50, range over the panel): 850 to 4130 nM
- mean graph midpoint (MG_MID) of Log10 LC50 ([4]; Melanoma panel, log of concentration leading to 50% net cell death): 4.62
- GI50 ([5]; Leukemia panel, log of concentration in mol/L causing 50% inhibition of net cell growth, read-out: mean graph midpoint (MG_MID) of Log10 GI50 (converted)): 1550 nM
- LC50 ([5]; Leukemia panel, log of concentration leading to 50% net cell death, read-out: mean graph midpoint (MG_MID) of Log10 LC50 (converted)): ≥ 100000 nM
- GI50 ([5]; two leukemia cancer cell lines (RPMI-8226 and K-562), exposure at least 48 hrs, read-out: GI50, range over the panel): 1430 to 1670 nM
- GI50 ([6]; Homo sapiens, log of concentration in mol/L causing 50% inhibition of net cell growth, read-out: mean graph midpoint (MG_MID) of Log10 GI50 (converted)): 1860 nM
- LC50 ([6]; Homo sapiens, log of concentration leading to 50% net cell death, read-out: mean graph midpoint (MG_MID) of Log10 LC50 (converted)): 79400 nM
- mean graph midpoint (MG_MID) of Log10 TGI ([6]; log of concentration resulting in total inhibition of net cell growth): 5.10
- GI50 ([7]; Renal panel, log of concentration in mol/L causing 50% inhibition of net cell growth, read-out: mean graph midpoint (MG_MID) of Log10 GI50 (converted)): 8910 nM
- LC50 ([7]; Renal panel, log of concentration leading to 50% net cell death, read-out: mean graph midpoint (MG_MID) of Log10 LC50 (converted)): 10200 nM
- GI50 ([7]; eight renal cancer cell lines, exposure at least 48 hrs, read-out: GI50, range over the panel): 1260 to 3450 nM
- mean graph midpoint (MG_MID) of Log10 LC50 ([8]; Colon panel, log of concentration leading to 50% net cell death): 5.08
- GI50 ([8]; Colon panel, log of concentration in mol/L causing 50% inhibition of net cell growth, read-out: mean graph midpoint (MG_MID) of Log10 GI50 (converted)): 1020 nM
- GI50 ([8]; seven colon cancer cell lines, exposure at least 48 hrs, read-out: GI50, range over the panel): 220 to 2130 nM
- mean graph midpoint (MG_MID) of Log10 LC50 ([9]; CNS panel, log of concentration leading to 50% net cell death): 5.04
- GI50 ([9]; CNS panel, log of concentration in mol/L causing 50% inhibition of net cell growth, read-out: mean graph midpoint (MG_MID) of Log10 GI50 (converted)): 1480 nM
- GI50 ([9]; six CNS cancer cell lines, exposure at least 48 hrs, read-out: GI50, range over the panel): 1090 to 1880 nM
- GI50 [10, 33]: 1890 nM
- GI50 [10, 34]: 1910 nM
- GI50 [11, 33]: 1260 nM
- GI50 [11, 34]: 1260 nM
- GI50 [12, 33]: 1550 nM
- GI50 [12, 34]: 1550 nM
- GI50 [13, 33]: 2640 nM
- GI50 [13, 34]: 2630 nM
- GI50 [14, 33]: 3450 nM
- GI50 [14, 34]: 3470 nM
- GI50 [15, 33]: 1210 nM
- GI50 [15, 34]: 1200 nM
- GI50 ([16]; SN 12C, read-out: pGI50 (-log of molar concentration causing 50% inhibition of net cell growth) (converted)): 1450 nM
- GI50 [16, 33]: 1440 nM
- GI50 [17, 33]: 2130 nM
- GI50 [17, 34]: 2140 nM
- GI50 ([18]; COLO205, read-out: pGI50 (-log of molar concentration causing 50% inhibition of net cell growth) (converted)): 2090 nM
- GI50 [18, 33]: 2090 nM
- GI50 [19, 33]: 1560 nM
- GI50 [19, 34]: 1550 nM
- GI50 [20, 33]: 1110 nM
- GI50 [20, 34]: 1120 nM
- GI50 ([21]; PC-3, read-out: pGI50 (-log of molar concentration causing 50% inhibition of net cell growth) (converted)): 1860 nM
- GI50 ([21]; one prostate cancer cell line (PC-3), exposure at least 48 hrs, read-out: GI50): 1850 nM
- GI50 [22, 33]: 1330 nM
- GI50 [22, 34]: 1320 nM
- GI50 [23, 33]: 1520 nM
- GI50 [23, 34]: 1510 nM
- GI50 [24, 33]: 2310 nM
- GI50 [24, 34]: 2290 nM
- GI50 [25, 33]: 3380 nM
- GI50 [25, 34]: 3390 nM
- GI50 [26, 33]: 1160 nM
- GI50 [26, 34]: 1150 nM
- GI50 [27, 33]: 1290 nM
- GI50 [27, 34]: 1290 nM
- GI50 [28, 33]: 1710 nM
- GI50 [28, 34]: 1700 nM
- GI50 [29, 33]: 1890 nM
- GI50 [29, 34]: 1910 nM
- GI50 [30, 33]: 1450 nM
- GI50 [30, 34]: 1450 nM
- GI50 [31, 33]: 1660 nM
- GI50 [31, 34]: 1660 nM
- GI50 [32, 33]: 510 nM
- GI50 [32, 34]: 513 nM
